Test results published in patent US8808664B2, “Lipidated glycoprotein particles and methods of use” (Ramot at Tel-Aviv University Ltd., priority 2004, dated 2014).

Columns and labels:
[1] = Efficiency of entrapment of drugs/bioactive agents in collagen disks or particles; type: physicochemical
Description: Efficiency of entrapment of drugs/bioactive agents in the collagen disks or particles, and kinetics of drug efflux for small molecular weight drugs was determined utilizing absorption spectra (mostly in an ELISA plate reader), fluorescence emission spectra (mostly in a fluorescence plate reader), and HPLC. Half-life data was processed according to a theoretical framework previously developed for liposomes (Margalit et al., 1991), incorporated herein in its entirety) which yields the rate constant for drug efflux.

glioma C6 line = test: Treatment of multi-drug resistant cell lines, cell survival by MTT assay; type: cell-based, rat; conditions: 24-28 hours post-treatment
Description: (§1) FIGS. 6A-6C show results for three cell lines, C26 (FIG. 6A), HT29 (FIG. 6B) and […], in terms of response to chemotherapeutic drugs encapsulated in collagen particles. The bars represent 60-64 repeats and the error bars represent the standard deviation. Three asterisks (***) indicate p<0.001.
(§2) Cells were seeded onto 96 well plates, and the experiment was initiated at semi-confluency, usually 24 hours post seeding. For the test system, cells were given a selected dose of the drug of choice, which was entrapped in a collagen particle formulation (washed of excess free drug prior to use). The controls were given the same dose of free drug, and a dose of drug-free collagen particles at a dose similar to that of the test system. Cell survival was determined 24-28 hours post-treatment, using the MTT assay (Nutt, et al. 2000; and Larsen et al., 2000).

[2] = test system: C26 colon adenocarcimona cell line; test: as above; type: cell-based, mouse; conditions: 24-28 hours post-treatment
Description: as §1, §2

[3] = test system: HT29 colon adenocarcimona cell line; test: as above; type: cell-based, human; conditions: 24-28 hours post-treatment
Description: as §1, §2

[4] = Collagen Disks (1-20 mm in a diameter)
[5] = Collagen particles (0.5-10 μm in diameter)

Molecule	% Entrapment [1, 4] [%]	% Entrapment [1, 5] [%]	cell survival / response (MTT), FIGS. 6A-6C (glioma C6 line)	cell survival / response (MTT), FIGS. 6A-6C [2]	cell survival / response (MTT), FIGS. 6A-6C [3]
O=C(N[C@H](CO)[C@H](O)c1ccc([N+](=O)[O-])cc1)C(Cl)Cl [CAM, chloramphenicol]	89.5 ± 1.4	94.1 ± 0.8			
COc1cccc2c1C(=O)c1c(O)c3c(c(O)c1C2=O)C[C@@](O)(C(=O)CO)C[C@@H]3O[C@H]1C[C@H](N)[C@H](O)[C@H](C)O1 [DOX, doxorubicin]	78.4 ± 2.4	71.9 ± 0.4	typical for the inherent form of MDR	typical for the inherent form of MDR	typical for the inherent form of MDR
CO[C@@]12[C@H](COC(N)=O)C3=C(C(=O)C(C)=C(N)C3=O)N1C[C@@H]1N[C@@H]12 [MMC, Mitomycin C]	80.2 ± 1.0	67.3 ± 2.1			
Insulin: high molecular weight drug entrapped in collagen particles and disks	89.4 ± 2.3	91.2 ± 0.7			
